# From article PMC11040118 (Heliyon, 2024)
# Read-outs that look alike come from different tables or passages of the source.
# Target: T1, Thyroperoxidase (TPO) (Rattus norvegicus, UniProt P14650)
# T1 sequence (P14650 32-914): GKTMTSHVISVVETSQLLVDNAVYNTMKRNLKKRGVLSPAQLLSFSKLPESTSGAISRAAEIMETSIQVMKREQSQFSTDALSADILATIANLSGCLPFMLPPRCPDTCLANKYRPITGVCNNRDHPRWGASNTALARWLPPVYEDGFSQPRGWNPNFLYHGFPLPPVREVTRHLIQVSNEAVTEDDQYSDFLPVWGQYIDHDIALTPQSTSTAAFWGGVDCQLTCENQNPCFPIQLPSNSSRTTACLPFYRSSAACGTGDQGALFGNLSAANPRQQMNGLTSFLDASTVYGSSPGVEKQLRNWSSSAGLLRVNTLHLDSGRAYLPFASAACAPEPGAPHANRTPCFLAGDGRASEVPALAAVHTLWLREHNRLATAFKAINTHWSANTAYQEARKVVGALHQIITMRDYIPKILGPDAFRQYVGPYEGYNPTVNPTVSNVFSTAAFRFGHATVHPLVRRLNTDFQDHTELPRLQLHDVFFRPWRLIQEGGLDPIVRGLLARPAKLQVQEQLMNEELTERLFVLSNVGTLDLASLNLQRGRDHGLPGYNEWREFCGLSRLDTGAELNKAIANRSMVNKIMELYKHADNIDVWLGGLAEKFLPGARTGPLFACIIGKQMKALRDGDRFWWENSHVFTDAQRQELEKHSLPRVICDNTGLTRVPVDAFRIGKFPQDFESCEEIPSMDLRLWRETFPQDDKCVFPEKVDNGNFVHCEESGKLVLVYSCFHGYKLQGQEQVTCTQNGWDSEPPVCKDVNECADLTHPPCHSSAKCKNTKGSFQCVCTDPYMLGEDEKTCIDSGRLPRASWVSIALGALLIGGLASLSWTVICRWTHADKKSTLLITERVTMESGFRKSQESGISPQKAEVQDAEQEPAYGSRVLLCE
# Type: biochemical
# [1] = AVG IC50 ± SD, L-Tyr to MIT, rat thyroid microsomes, mean of N = 3 ± SD
# [2] = Actual pIC50, in vitro value repeated in Table 2 for comparison with the models
# [3] = Log10 Value of AVG IC50, L-Tyr to MIT, from average IC50, Table 1
SMILES,IC50 [1] [nM],IC50 [2] [nM],IC50 [3] [nM],"Log10 Value of AVG IC50, L-Tyr to MIT (from average IC50, Table 1)",Actual pIC50 (in vitro value repeated in Table 2 for comparison with the models)
NC(=S)Nc1ccccc1 [Phenylthiourea],2730 ± 690,2750,–,–,–
COc1cc(/C=C/C(=O)CC(=O)/C=C/c2ccc(O)c(OC)c2)ccc1O [Curcumin],1810 ± 430,1820,–,–,–
"Oc1ccc(OCc2ccccc2)cc1 [4-Benzyloxy phenol, 4-Benzyloxyphenol]",8760 ± 1360,8910,8910,–,–
O=C(O[C@@H]1Cc2c(O)cc(O)cc2O[C@@H]1c1cc(O)c(O)c(O)c1)c1cc(O)c(O)c(O)c1 [Epigallocatechin gallate],–,–,–,6.48,6.48
O=C(O)c1cc(O)c(O)c(O)c1 [Gallic acid hydrate],790 ± 340,813,813,–,–

# The next lines start with the values.
IC50 [1] [nM],IC50 [2] [nM],IC50 [3] [nM],"Log10 Value of AVG IC50, L-Tyr to MIT (from average IC50, Table 1)",Actual pIC50 (in vitro value repeated in Table 2 for comparison with the models),SMILES
710 ± 50,724,–,–,–,"Oc1ccc(/C=C/c2cc(O)cc(O)c2)cc1 [Reservatrol, Resveratrol]"
7770 ± 2710,7940,7940,–,–,CC[C@H](c1ccc(O)cc1)[C@@H](CC)c1ccc(O)cc1 [Hexestrol]
1510 ± 170,1550,1550,–,–,"COc1cc(CCC(=O)CC(=O)CCc2ccc(O)c(OC)c2)ccc1O [Tetrahydro curcumin, Tetrahydrocurcumin]"
4930 ± 1970,5010,5010,–,–,"O=c1c(O)c(-c2ccc(O)cc2)oc2cc(O)cc(O)c12 [Kaemferol, Kaempferol]"
